Source: patent EP3046573B1, “AMYLIN ANALOGUES” (Zealand Pharma A/S, priority 2013, dated 2015)
Numbered stars: 1 amine (or outer) side, 2 acyl side, 3 side chain; on linkers, the order of the positions; unused ones are H or OH. Bridge positions count the residues as written; N and C are the ends. Square brackets hold non-standard residues; d marks the D form. Peptide text beside a SMILES is read from it. * marks the point of attachment. C20 diacid = O=C(O)CCCCCCCCCCCCCCCCCCC(=O)*; Pro(4R-NH2) = N[C@H]1CN[C@H](C(=O)O)C1; γGlu = O=C(O)[C@H](CCC(=O)[*:2])N[*:1]; Hyp = O=C(O)[C@@H]1C[C@@H](O)CN1; NMeI = CC[C@H](C)[C@H](NC)C(=O)O; Sar = CNCC(=O)O

Columns and labels:
[1] = target: T1, human amylin receptor 3 (hAMYR3) consisting of hCTR2 co-expressed with human Receptor Activity Modifying Protein 3 (hRAMP3) (Homo sapiens, UniProt O60896+P30988); test: hAMYR3 assay: induction of cAMP (AlphaScreen cAMP Assay kit) in COS7 cells expressing hAMYR3; format: cell-based
T1 construct: expressed in transfected cells
T1 sequence (P30988 25-474): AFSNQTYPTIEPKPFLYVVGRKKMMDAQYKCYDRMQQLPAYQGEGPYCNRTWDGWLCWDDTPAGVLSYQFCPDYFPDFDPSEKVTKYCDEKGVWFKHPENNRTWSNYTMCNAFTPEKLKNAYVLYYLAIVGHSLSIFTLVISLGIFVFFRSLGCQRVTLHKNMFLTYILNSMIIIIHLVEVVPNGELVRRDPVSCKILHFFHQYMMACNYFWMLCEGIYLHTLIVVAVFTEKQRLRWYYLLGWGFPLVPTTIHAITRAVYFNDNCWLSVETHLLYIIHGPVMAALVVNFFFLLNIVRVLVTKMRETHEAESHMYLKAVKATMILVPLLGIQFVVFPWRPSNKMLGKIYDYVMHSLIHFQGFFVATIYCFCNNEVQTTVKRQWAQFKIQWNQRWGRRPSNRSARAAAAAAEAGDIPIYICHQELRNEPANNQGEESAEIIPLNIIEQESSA
T1 sequence (O60896 24-148 partner): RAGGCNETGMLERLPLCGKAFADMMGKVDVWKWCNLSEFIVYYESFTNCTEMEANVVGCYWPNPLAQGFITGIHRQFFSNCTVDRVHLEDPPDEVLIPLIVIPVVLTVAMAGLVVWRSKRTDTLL
Outline: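 Stable COS7 clone co-expressing hCTR2 and hRAMP3, stimulated 15 min at 37° C with increasing peptide in Tyrode buffer pH 7.4 with 100 µM IBMX and 0.1% casein. cAMP measured by AlphaScreen after lysis; EC50 and % efficacy versus pramlintide from 4PL fit.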

[2] = Assessment of chemical stability: normalized purity by RP-HPLC after incubation at 40 °C; format: physicochemical; settings: normalized purity (T=0 set to 100), 0.2 mg/ml; for Chem. stability; 7 days, 40°C pH 4: pH 4, 7 days; for Chem. stability; 7 days, 40°C pH 7.5: pH 7.5, 7 days; for Chem. stability; 7 days, 40°C pH 9: pH 9, 7 days
Outline: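 Peptides at 0.2 mg/ml in water adjusted to pH 4, 7.5 or 9, held at 40 °C for 7 days. Purity by RP-HPLC (C8/ammonium formate or C18/TFA gradients), UV 220 nm, as main-peak area-%; normalized to T=0 set as 100 for each pH.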

[3] = Assessment of physical stability: fibril formation detected with Thioflavin T (ThT), lag-time; format: physicochemical; settings: 1 mg/ml peptide, 40 µM ThT, FND = Fibrillation not detected; for Fibrillation lag time (hours) pH 4.0 (Ac): 50 mM acetate buffer pH 4.0, 96 hours at 40°C; for Fibrillation lag time (hours) pH 7.0 (His): 50 mM histidine buffer pH 7.0, 96 hours at 40°C; for Fibrillation lag time (hours) pH 7.0 (Ph): 50 mM phosphate buffer pH 7.0, 96 hours at 40°C
Outline: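 Test peptide at 1 mg/ml with 40 µM ThT in 50 mM phosphate (pH 7.0), 50 mM histidine (pH 7.0) or 50 mM acetate (pH 4.0), in triplicate, 40° C. for 96 h. Fluorescence read every 10 min after 300 s agitation. Lag-time (h) taken as intersection of linear fits to initial stable and growth phases.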

| Compound | EC50 [1] | Chem. stability; 7 days, 40°C pH 4 [2] | Chem. stability; 7 days, 40°C pH 7.5 [2] | Chem. stability; 7 days, 40°C pH 9 [2] | Fibrillation lag time (hours) pH 4.0 (Ac) [3] | Fibrillation lag time (hours) pH 7.0 (His) [3] | Fibrillation lag time (hours) pH 7.0 (Ph) [3] |
| --- | --- | --- | --- | --- | --- | --- | --- |
| CC[C@H](C)[C@@H](C(=O)N[C@@H](CC(C)C)C(=O)N[C@@H](CO)C(=O)N[C@@H](CO)C(=O)N[C@H](C(=O)N[C@@H](CC(N)=O)C(=O)N[C@H](C(=O)NCC(=O)N[C@@H](CO)C(=O)N[C@@H](CC(N)=O)C(=O)N[C@H](C(=O)N1C[C@H](O)C[C@H]1C(N)=O)[C@@H](C)O)C(C)C)[C@@H](C)O)N(C)C(=O)[C@H](C)NC(=O)CN(C)C(=O)[C@H](Cc1ccccc1)NC(=O)[C@H](CC(N)=O)NC(=O)[C@H](CC(N)=O)NC(=O)[C@H](CO)NC(=O)[C@H](CO)NC(=O)[C@H](CCCNC(=N)N)NC(=O)[C@H](Cc1c[nH]cn1)NC(=O)[C@H](CC(C)C)NC(=O)[C@H](Cc1ccccc1)NC(=O)[C@H](CCC(=O)O)NC(=O)[C@H](C)NC(=O)[C@H](CC(C)C)NC(=O)[C@H](CCCNC(=N)N)NC(=O)[C@H](CCC(N)=O)NC(=O)[C@@H](NC(=O)[C@H](C)NC(=O)[C@@H]1CSSC[C@H](NC(=O)[C@H](CCCNC(=N)N)NC(=O)CC[C@H](NC(=O)CCCCCCCCCCCCCCCCCCC(=O)O)C(=O)O)C(=O)N[C@@H](CC(N)=O)C(=O)N[C@@H]([C@@H](C)O)C(=O)N[C@@H](C)C(=O)N[C@@H]([C@@H](C)O)C(=O)N1)[C@@H](C)O [Compound 105, [19CD]-isoGlu-RC()NTATC()ATQRLAEFLHRSSNNF-Gly(Me)-A-Ile(Me)-LSSTNVGSNT-Hyp-NH2] ({C20 diacid-γGlu}-RCNTATCATQRLAEFLHRSSNNF[Sar]A[NMeI]LSSTNVGSNT[Hyp]-NH2; disulfide 2-7) | 0.092 nM | 57 area-% | 57 area-% | 42 area-% | FND | FND | FND |
| CC[C@H](C)[C@@H](C(=O)N[C@@H](CC(C)C)C(=O)N[C@@H](CO)C(=O)N[C@@H](CO)C(=O)N[C@H](C(=O)N[C@@H](CC(N)=O)C(=O)N[C@H](C(=O)NCC(=O)N[C@@H](CO)C(=O)N[C@@H](CC(N)=O)C(=O)N[C@H](C(=O)N1C[C@H](N)C[C@H]1C(N)=O)[C@@H](C)O)C(C)C)[C@@H](C)O)N(C)C(=O)[C@H](C)NC(=O)CN(C)C(=O)[C@H](Cc1ccccc1)NC(=O)[C@H](CC(N)=O)NC(=O)[C@H](CC(N)=O)NC(=O)[C@H](CO)NC(=O)[C@H](CO)NC(=O)[C@H](CCCNC(=N)N)NC(=O)[C@H](Cc1c[nH]cn1)NC(=O)[C@H](CC(C)C)NC(=O)[C@H](Cc1ccccc1)NC(=O)[C@H](CCC(=O)O)NC(=O)[C@H](C)NC(=O)[C@H](CC(C)C)NC(=O)[C@H](CCCNC(=N)N)NC(=O)[C@H](CCC(N)=O)NC(=O)[C@@H](NC(=O)[C@H](C)NC(=O)[C@@H]1CSSC[C@H](NC(=O)[C@H](CCCNC(=N)N)NC(=O)CC[C@H](NC(=O)CCCCCCCCCCCCCCCCCCC(=O)O)C(=O)O)C(=O)N[C@@H](CC(N)=O)C(=O)N[C@@H]([C@@H](C)O)C(=O)N[C@@H](C)C(=O)N[C@@H]([C@@H](C)O)C(=O)N1)[C@@H](C)O [Compound 110, [19CD]-isoGlu-RC()NTATC()ATQRLAEFLHRSSNNF-Gly(Me)-A-Ile(Me)-LSSTNVGSNT-Apr-NH2] ({C20 diacid-γGlu}-RCNTATCATQRLAEFLHRSSNNF[Sar]A[NMeI]LSSTNVGSNT[Pro(4R-NH2)]-NH2; disulfide 2-7) | 0.087 nM | 74 area-% | 66 area-% | 59 area-% | FND | FND | FND |
| CC[C@H](C)[C@@H](C(=O)N[C@@H](CC(C)C)C(=O)N[C@@H](CO)C(=O)N[C@@H](CO)C(=O)N[C@H](C(=O)N[C@@H](CC(N)=O)C(=O)N[C@H](C(=O)NCC(=O)N[C@@H](CO)C(=O)N[C@@H](CC(N)=O)C(=O)N[C@H](C(=O)N1CCC[C@H]1C(N)=O)[C@@H](C)O)C(C)C)[C@@H](C)O)N(C)C(=O)[C@H](C)NC(=O)CN(C)C(=O)[C@H](Cc1ccccc1)NC(=O)[C@H](CC(N)=O)NC(=O)[C@H](CC(N)=O)NC(=O)[C@H](CO)NC(=O)[C@H](CO)NC(=O)[C@H](CCCNC(=N)N)NC(=O)[C@H](Cc1c[nH]cn1)NC(=O)[C@H](CC(C)C)NC(=O)[C@H](Cc1ccccc1)NC(=O)[C@H](CCC(=O)O)NC(=O)[C@H](C)NC(=O)[C@H](CC(C)C)NC(=O)[C@H](CCCNC(=N)N)NC(=O)[C@H](CCC(N)=O)NC(=O)[C@@H](NC(=O)[C@H](C)NC(=O)[C@@H]1CSSC[C@H](NC(=O)[C@H](Cc2c[nH]c3ccccc23)NC(=O)[C@H](CCCNC(=N)N)NC(=O)CC[C@H](NC(=O)CCCCCCCCCCCCCCCCCCC(=O)O)C(=O)O)C(=O)N[C@@H](CC(N)=O)C(=O)N[C@@H]([C@@H](C)O)C(=O)N[C@@H](C)C(=O)N[C@@H]([C@@H](C)O)C(=O)N1)[C@@H](C)O [Compound 174, [19CD]-isoGlu-RWC()NTATC()ATQRLAEFLHRSSNNF-Gly(Me)-A-Ile(Me)-LSSTNVGSNTP-NH2] ({C20 diacid-γGlu}-RWCNTATCATQRLAEFLHRSSNNF[Sar]A[NMeI]LSSTNVGSNTP-NH2; disulfide 3-8) | 0.18 nM | 92 area-% | 31 area-% | 39 area-% | FND | FND | FND |
